Molecular target: T1, K-Ras G12C (Homo sapiens, UniProt P01116, G12C)
T1 construct: This protein contained 188 amino acids in total, including an N-terminal 6-Histidine tag; made in house; host or cells: E. coli BL21
Experiment: CAF assay (% CAF; method in Example 7, not in this part)
Type: binding
Conditions: 10 uM compound, 1 h incubation

Row | % CAF @ 10 uM, 1h [%] | Compound
1 | 97 | C=CC(=O)N1CCN(c2nc(=O)n3c4c(c(-c5ccc(F)cc5)c(C(F)(F)F)cc24)SC[C@H](OC)C3)[C@@H](C)C1 [Example 527, (R)-8-((S)-4-acryloyl-2-methylpiperazin-1-yl)-11-(4-fluorophenyl)-3-methoxy-10-(trifluoromethyl)-3,4-dihydro-2H,6H-[1,4]thiazepino[2,3,4-ij]quinazolin-6-one]
2 | 96 | C=CC(=O)N1CCN(c2nc(=O)n3c4c(c(-c5ccc(F)cc5F)c(Cl)cc24)SC[C@@H](OC)C3)CC1 [Example 504, (3S)-8-(4-acryloylpiperazin-1-yl)-10-chloro-11-(2,4-difluorophenyl)-3-methoxy-3,4-dihydro-2H,6H-[1,4]thiazepino[2,3,4-ij]quinazolin-6-one]
3 | 91.5 | C=CC(=O)N1C[C@H](C)N(c2nc(=O)n3c4c(c(-c5ccc(F)cc5F)c(C(F)(F)F)cc24)SC[C@@H]3CN2CCN(C3CC3)CC2)C[C@H]1C (single isomer, unassigned) [Example 580]
4 | 70.7 | C=CC(=O)N1C[C@H](C)N(c2nc(=O)n3c4c(c(-c5ccc(F)cc5F)c(Cl)cc24)SC[C@@H]3CC2CCN(C3CC3)CC2)C[C@H]1C [Example 478, (3S)-7-((2S,5R)-4-acryloyl-2,5-dimethylpiperazin-1-yl)-9-chloro-3-((1-cyclopropylpiperidin-4-yl)methyl)-10-(2,4-difluorophenyl)-2H-[1,4]thiazino[2,3,4-ij]quinazolin-5(3H)-one]
5 | 49.8 | C=CC(=O)N1C[C@H](C)N(c2nc(=O)n3c4c(c(-c5cc(F)c(F)cc5F)c(Cl)cc24)SC[C@@H]3CC2CCN(C3CC3)CC2)C[C@H]1C [Example 475, (3S)-7-((2S,5R)-4-acryloyl-2,5-dimethylpiperazin-1-yl)-9-chloro-3-((1-cyclopropylpiperidin-4-yl)methyl)-10-(2,4,5-trifluorophenyl)-2H-[1,4]thiazino[2,3,4-ij]quinazolin-5(3H)-one]
6 | 93.4 | C=CC(=O)N1C[C@H](C)N(c2nc(=O)n3c4c(c(-c5cccc6cnn(C)c56)c(Cl)cc24)SC[C@@H]3CN2CCN(CC(F)F)CC2)C[C@H]1C (atropisomer, axis not shown) [Example 569, (3S,10R)-7-((2S,5R)-4-acryloyl-2,5-dimethylpiperazin-1-yl)-9-chloro-3-((4-(2,2-difluoroethyl)piperazin-1-yl)methyl)-10-(1-methyl-1H-indazol-7-yl)-2,3-dihydro-5H-[1,4]thiazino[2,3,4-ij]quinazolin-5-one]
7 | 38 | C=CC(=O)N1CCN(c2nc(=O)n3c4c(c(-c5cc(Cl)c(F)cc5F)c(Cl)cc24)SC[C@@H]3COCOC)[C@@H](C)C1 [Example 446, (3S)-7-((S)-4-acryloyl-2-methylpiperazin-1-yl)-9-chloro-10-(5-chloro-2,4-difluorophenyl)-3-((methoxymethoxy)methyl)-2H-[1,4]thiazino[2,3,4-ij]quinazolin-5(3H)-one]
8 | 96.1 | C=CC(=O)N1CCN(c2nc(=O)n3c4c(c(-c5ccc(F)cc5F)c(C(F)(F)F)cc24)SC[C@@H]3COC)CC1 [Example 514, (3S)-7-(4-acryloylpiperazin-1-yl)-10-(2,4-difluorophenyl)-3-(methoxymethyl)-9-(trifluoromethyl)-2H-[1,4]thiazino[2,3,4-ij]quinazolin-5(3H)-one]

More lines, now with the values behind:

Row | Compound | % CAF @ 10 uM, 1h [%]
9 | C=CC(=O)N1CCN(c2nc(=O)n3c4c(c(-c5ccc(F)c6[nH]ncc56)c(Cl)cc24)SCC3)[C@@H](C)C1 [Example 419, 7-((S)-4-acryloyl-2-methylpiperazin-1-yl)-9-chloro-10-(7-fluoro-1H-indazol-4-yl)-2,3-dihydro-5H-[1,4]thiazino[2,3,4-ij]quinazolin-5-one] | 54.3
10 | C=CC(=O)N1CCN(c2nc(=O)n3c4c(c(-c5ccc(F)c6cccnc56)c(Cl)cc24)SCC3)[C@@H](C)C1 [Example 441, 7-((S)-4-acryloyl-2-methylpiperazin-1-yl)-9-chloro-10-(5-fluoroquinolin-8-yl)-2,3-dihydro-5H-[1,4]thiazino[2,3,4-ij]quinazolin-5-one] | 78.5
11 | C=CC(=O)N1CCN(c2nc(=O)n3c4c(c(-c5ccc(F)cc5F)c(C(F)(F)F)cc24)S(=O)(=O)C[C@@H]3CC2CCN(CC)CC2)[C@@H](C)C1 [Example 434, (3S)-7-((S)-4-acryloyl-2-methylpiperazin-1-yl)-10-(2,4-difluorophenyl)-3-((1-ethylpiperidin-4-yl)methyl)-9-(trifluoromethyl)-2H-[1,4]thiazino[2,3,4-ij]quinazolin-5(3H)-one 1,1-dioxide] | 51.5

Same assay, conditions: 10 uM, 1 h; Table 3

Row | % CAF @ 10 uM, 1h [%] | Compound
12 | 97.1 | C[C@H]1CN(C(=O)/C=C/C(F)F)CCN1c1nc(=O)n2c3c(c(-c4ccc(F)cc4F)c(Cl)cc13)SCC2 [Example 119, 9-chloro-7-((S)-4-((E)-4,4-difluorobut-2-enoyl)-2-methylpiperazin-1-yl)-10-(2,4-difluorophenyl)-2,3-dihydro-5H-[1,4]thiazino[2,3,4-ij]quinazolin-5-one]
13 | 96 | C=CC(=O)N1CCN(c2nc(=O)n3c4c(c(-c5ccc(F)cc5F)c(Cl)cc24)SC[C@H]3CC2CCN(CC(F)F)CC2)[C@@H](C)C1 [Example 69, (3R)-7-((S)-4-acryloyl-2-methylpiperazin-1-yl)-9-chloro-3-((1-(2,2-difluoroethyl)piperidin-4-yl)methyl)-10-(2,4-difluorophenyl)-2,3-dihydro-5H-[1,4]thiazino[2,3,4-ij]quinazolin-5-one]
14 | 94.4 | C=CC(=O)N1CCN(c2nc(=O)n3c4c(c(-c5ccc(F)cc5F)c(Cl)cc24)SCC3)[C@@H](CC#N)C1 [Example 104, 2-((2S)-4-acryloyl-1-(9-chloro-10-(2,4-difluorophenyl)-5-oxo-2,3-dihydro-5H-[1,4]thiazino[2,3,4-ij]quinazolin-7-yl)piperazin-2-yl)acetonitrile]
15 | 33.1 | C=CC(=O)N1CCN(c2nc(=O)n3c4c(c(-c5ccc(F)cc5F)c(Cl)cc24)SCC3CN2CCN(C)CC2)[C@@H](C)C1 (stereo partly drawn) [Example 126, 7-((S)-4-acryloyl-2-methylpiperazin-1-yl)-9-chloro-10-(2,4-difluorophenyl)-3-((4-methylpiperazin-1-yl)methyl)-2,3-dihydro-5H-[1,4]thiazino[2,3,4-ij]quinazolin-5-one]

Row | Compound | % CAF @ 10 uM, 1h [%]
16 | C=CC(=O)N1C2CC1CN(c1nc(=O)n3c4c(c(-c5ccc(F)cc5F)c(Cl)cc14)SCC3)C2 [Example 165, 7-(6-acryloyl-3,6-diazabicyclo[3.1.1]heptan-3-yl)-9-chloro-10-(2,4-difluorophenyl)-2,3-dihydro-5H-[1,4]thiazino[2,3,4-ij]quinazolin-5-one] | 16.9

Same assay, conditions: 10 μM, 1 h; Table 4

Row | % CAF @ 10 μM, 1 h [%] | Compound
17 | 96.9 | C=CC(=O)N1CCN(c2nc(=O)n3c4c(c(-c5c(F)cc(F)cc5F)c(Cl)cc24)SC[C@@H]3CCCN2C[C@@H]3C[C@H]2CO3)[C@@H](C)C1 [Example 340, (S)-3-(3-((1S,4S)-2-oxa-5-azabicyclo[2.2.1]heptan-5-yl)propyl)-7-((S)-4-acryloyl-2-methylpiperazin-1-yl)-9-chloro-10-(2,4,6-trifluorophenyl)-2H-[1,4]thiazino[2,3,4-ij]quinazolin-5(3H)-one]

Reference: patent publication US20230107642A1 (Erasca, Inc., priority 2020, published 2023)
